Test results: ChEMBL document CHEMBL4406917, “Approaches for Prevention and Treatment of Neurodegenerative Diseases: ALS and Alzheimer's” (ACS Med Chem Lett, 2019); call rule not given here
Values after ≈ are worked out from the molar mass of the structure shown.

Assays:
[1] = Drug uptake in plasma of SOD1-G93A mutant-induced ALS C57BL/6 mouse model at 50 mg/kg, ip measured within 30 mins; type: ADME, organism-based; conditions: in vivo, 0.5 h
[2] = Toxicity in SOD1-G93A mutant-induced ALS C57BL/6 mouse model assessed as effect on animal survival at 50 mg/kg, ip; type: organism-based; conditions: in vivo
[3] = (§1) Activation of NF-KappaB (unknown origin) expressed in SH-SY5Y cells co-transfected with pNFkappaB-Luc plasmid measured after 24 hrs by Bright-Glo luciferase assay; type: cell-based; conditions: Homo sapiens
SH-SY5Y = assay: as §1; type: cell-based; conditions: Homo sapiens
[4] = Drug uptake in brain of SOD1-G93A mutant-induced ALS C57BL/6 mouse model at 50 mg/kg, ip measured within 30 mins; type: ADME, organism-based; conditions: in vivo, 0.5 h
[5] = Kinetic solubility of compound at pH 7.4 by shake flask method; type: physicochemical; conditions: buffer, read-out: Kinetic_solubility

Row | solubility kinetic [5] | SMILES | Drug uptake [1] | Activity [2] | EC50 [3] | ECmax (SH-SY5Y) | Drug uptake [4]
1 | – | Cc1cccnc1Nc1nc(-c2ccccn2)cs1 | Active | Non-Toxic | 210 nM | 40 µM | Active
2 | 56 µM (≈ 16.7 µg/mL) | O=C(O)c1cccc(-c2cnc(Nc3ccccc3F)o2)c1 | – | – | – | 23.5 µM | –
3 | – | O=C(/C=C\Nc1ccccc1Br)c1ccc2c(c1)OCO2 | Active | Non-Toxic | 500 nM | 26 µM | Active
4 | – | COC(=O)c1ccc(-c2cnc(Nc3c(F)cccc3F)o2)cc1 | – | – | – | 42.6 µM | –
